From patent US20030018025A1, “Certain 4-aminomethyl-2-substituted imidazole derivatives and 2-aminomethyl-4-substituted imidazole derivatives: new classes of dopamine receptor subtype specific ligands” (Neurogen Corporation, Corporation of the State of Delaware, priority 1995, published 2003)
Where a name gives a salt, the structure may show the parent alone.

| melting point [°C] | Compound |
| --- | --- |
| 155 to 157 | c1ccc(CC2CCN(Cc3ncc(-c4ccccc4)[nH]3)CC2)cc1 (as salt: fumarate) [Compound 77, 4-phenyl-2(5)-[(4-benzylpiperidin-1-yl)-methyl]imidazole] |
| 242 to 243 | COc1ccc(Br)cc1-c1ncc(CN(C)C)[nH]1 (as salt: hydrochloride) [Compound 1, 2-(5-bromo-2-methoxyphenyl)-4(5)-[(N,N-dimethyl)aminomethyl]-imidazole dihydrochloride] |
| 194 | COc1cc(Br)cc(-c2ncc(CN(C)C)[nH]2)c1OC (as salt: hydrochloride) [Compound 16, 2-(5-Bromo-2,3-dimethoxyphenyl)-4(5)-[(N,N-dimethyl)aminomethyl]-imidazole dihydrochloride] |
| 217 to 218 | COc1ccccc1N1CCN(Cc2cnc(-c3cccc(OC)c3OC)[nH]2)CC1 (as salt: hydrochloride) [Compound 21, 2-(2,3-Dimethoxyphenyl)-4(5)-[(4-(2-methoxyphenyl)-piperazin-1-yl)-methyl]-imidazole dihydrochloride] |
| 238 to 240 | c1ccc(-c2ncc(CN3CCC(c4ccccc4)CC3)[nH]2)cc1 (as salt: hydrochloride) [Compound 26, 2-Phenyl-4(5)-[(4-phenyl-piperidin-1-yl)-methyl]-imidazole dihydrochloride] |
| 138 to 143 | COc1ccc(Cl)cc1-c1ncc(CN2CCN(c3ccccc3OC)CC2)[nH]1 (as salt: hydrochloride) [Compound 43, 2-(5-Chloro-2-methoxyphenyl)-4(5)-[(4-(2-methoxyphenyl)-piperazin-1-yl)-methyl]-imidazole dihydrochloride] |
| 196 to 199 | COc1ccc(-c2nc(CN3CCC(c4ccccc4)CC3)c[nH]2)cc1 (as salt: hydrochloride) [Compound 47, 2-(4-Methoxyphenyl) -4(5)[(4-phenyl-piperidin-1-yl)-methyl]-imidazole dihydrochloride] |
| 114 to 117 | COc1cccc(-c2ncc(CN3CCC(c4ccccc4)CC3)[nH]2)c1 (as salt: hydrochloride) [Compound 50, 2-(3-Methoxyphenyl)-4(5)[(4-phenyl-piperidin-1-yl)-methyl]-imidazole dihydrochloride] |
| 61 to 64 | CCc1ccc(OC)c(-c2ncc(CN3CCN(c4ccccc4OC)CC3)[nH]2)c1 (as salt: hydrochloride) [Compound 55, 2-(5-Ethyl-2-methoxyphenyl-4(5)-[(4-(2-methoxyphenyl)-piperazin-1-yl)-methyl]-imidazoledihydrochloride] |
| 64 to 68 | Fc1ccc(N2CCN(Cc3cnc(-c4ccccc4)[nH]3)CC2)cc1 (as salt: hydrochloride) [Compound 56, 2-Phenyl-4(5)-[(4-(4-fluorophenyl)-piperazin-1-yl-)methyl]imidazole dihydrochloride] |
| 188 to 190 | Fc1ccnc(N2CCN(Cc3cnc(-c4ccccc4)[nH]3)CC2)n1 (as salt: hydrochloride) [Compound 58, 2-Phenyl-4(5)-[(4-(4-fluoro-2-pyrimidinyl)-piperazin-1yl)-methyl]imidazole dihydrochloride] |
| 142 to 145 | Cc1ccc(Cl)cc1N1CCN(Cc2cnc(-c3ccccc3)[nH]2)CC1 (as salt: hydrochloride) [Compound 60, 2-Phenyl-4(5)-[(4(5-chloro-2-methylphenyl)-piperazin-1yl-)-methyl]imidazole dihydrochloride] |
| 169 to 171 | CC(c1cnc(-c2ccccc2)[nH]1)N1CCC(Cc2ccccc2)CC1 (stereo not drawn) (as salt: hydrochloride) [Compound 91, 2-phenyl-4(5)-[1-((4-benzyl-piperidin-1-yl)-ethan-1-yl)]imidazole dihydrochloride salt] |
| 196 to 199 | Ic1nc(-c2ccccc2)[nH]c1CN1CCN(c2ncccn2)CC1 (as salt: hydroiodid) [Compound 90, 2-phenyl-5-iodo-4(5)-[(4-(2-pyrimidinyl)piperazin-1-yl)methyl]-imidazole hydroiodide salt] |
| 142 to 144 | Fc1ccccc1-c1ncc(CN2CCC(c3ccccc3)CC2)[nH]1 (as salt: maleate) [Compound 52, 2-(2-Fluorophenyl)-4(5)[(4-phenyl-piperidin-1-yl)-methyl]-imidazole dimaleate] |
| 105 to 107 | COc1ccccc1N1CCN(Cc2cnc(-c3ccccc3)[nH]2)CC1 [Compound 19, 2-phenyl-4-(5)-[(4-(2-methoxyphenyl)-piperazin-1-yl)-methyl]imidazole] |
| 95 to 97 | COc1ccccc1N1CCN(Cc2cnc(-c3ccc(F)cc3)[nH]2)CC1 [Compound 20, 2-(4-Fluorophenyl)-4(5)-[(4-(2-methoxyphenyl)-piperazin-1-yl)-methyl]-imidazole] |
| 179 to 181 | Clc1ccc(N2CCN(Cc3cnc(-c4ccccc4)[nH]3)CC2)cc1Cl [Compound 61, 2-Phenyl-4(5)-[(4(3,4-dichlorophenyl)-piperazin-1-yl-)methyl]imidazole] |
| 81 to 83 | c1ccc(CC2CCN(Cc3cnc(-c4cccc5ccccc45)[nH]3)CC2)cc1 [Compound 92, 2-(1-naphthyl)-4(5)-[(4-benzyl-piperidin-1-yl)-methyl]imidazole] |
| 177 to 179 | O=C(c1ccccc1)c1ncc(CN2CCN(c3ncccn3)CC2)[nH]1 [Compound 116, 2-(benzoyl)-4(5)-[(4-(2-pyrimidinyl)-piperazin-1-yl)-methyl]-imidazole] |
| 235 to 236 | O=C(/C=C/c1cnc(-c2ccccc2)[nH]1)N1CCN(c2ncccn2)CC1 [Compound 119, 2-phenyl-4(5)-[(4-(2-pyrimidinyl)-piperazin-1-yl)-propen-1-oyl]-imidazole] |
| 143 to 148 | O=C(CCc1cnc(-c2ccccc2)[nH]1)N1CCN(c2ncccn2)CC1 [Compound 122, 2-phenyl-4(5)-[(4-(2-pyrimidinyl)-piperazin-1-yl)-propan-1-oyl]-imidazole] |
| 133 to 135 | c1ccc(-c2ncc(CCCN3CCN(c4ncccn4)CC3)[nH]2)cc1 [Compound 125, 2-phenyl-4(5)-[(4-(2-pyrimidinyl)-piperazin-1-yl)-propan-1-yl]-imidazole] |
| 210 to 213 | c1cnc(N2CCN(Cc3cnc(C4CCCCC4)[nH]3)CC2)nc1 [Compound 128, 2-cyclohexyl-4(5)-[(4-(2-pyrimidinyl)-piperizin-1-yl)-methyl]-imidazole] |
| 221 to 225 | c1ccc(-c2nc(-c3ccccc3)c(CN3CCN(c4ncccn4)CC3)[nH]2)cc1 [Compound 132, 2,5-diphenyl-4(5)-[(4-(2-pyrimidinyl)piperazin-1-yl)methyl]-imidazole] |
| 178 to 180 | Cc1ccc(-c2ncc(CN3CCN(c4ncccn4)CC3)[nH]2)cc1 [Compound 133] |
| 189 to 191 | c1ccc(CC2CCN(CC3CCCc4[nH]c(-c5ccccc5)nc43)CC2)cc1 (stereo not drawn) [Compound 138, 2-phenyl-7-[(4-benzyl-piperidin-1-yl)-methyl]-4,5,6,7-tetrahydrobenzimidazole] |
| 130 to 135 | C[C@@H]1CN(c2ncccn2)C[C@H](C)N1Cc1cnc(-c2ccccc2)[nH]1 [Compound 140, 2-phenyl-4(5)-[(4-(2-pyrimidinyl)-cis-2,6-dimethylpiperazin-1-yl)-methyl]-imidazole] |
| 142 to 144 | c1ccc(-c2ncc(CCN3CCN(c4ncccn4)CC3)[nH]2)cc1 [Compound 143, 2-phenyl-4(5)-[(4-(2-pyrimidinyl)-piperazin-1-yl)-ethan-1-yl]-imidazole] |
| 231 to 232 | O=C(c1cnc(-c2ccccc2)[nH]1)N1CCN(c2ncccn2)CC1 [Compound 144, 2-phenyl-4(5)-N-[(4-(2-pyrimidinyl)piperazin-1-yl)-carboxamido]-imidazole] |
